Measured values as given in ChEMBL document CHEMBL5257057.
Activity calls are given as the source filed them. The rule behind the calls is not given here.

Columns and labels:
[1] = molecular target: Tyrosine-protein kinase BTK (Homo sapiens) (UniProt Q06187); assay: Inhibition of BTK phosphorylation in human JeKo-1 cells at 0.01 to 10 uM incubated for 2 hrs by Western blot analysis; assay type: cell-based; details: dose 0.01-10 µM
[2] = molecular target: Tyrosine-protein kinase BTK (Homo sapiens) (UniProt Q06187); assay: Inhibition of BTK (unknown origin) at 1 uM relative to control
[3] = molecular target: Tyrosine-protein kinase Blk (Homo sapiens) (UniProt P51451); assay: Inhibition of BLK (unknown origin) at 1 uM relative to control
Tyrosine-protein kinase Blk (Homo sapiens), sequence (P51451 2-505 limits assumed): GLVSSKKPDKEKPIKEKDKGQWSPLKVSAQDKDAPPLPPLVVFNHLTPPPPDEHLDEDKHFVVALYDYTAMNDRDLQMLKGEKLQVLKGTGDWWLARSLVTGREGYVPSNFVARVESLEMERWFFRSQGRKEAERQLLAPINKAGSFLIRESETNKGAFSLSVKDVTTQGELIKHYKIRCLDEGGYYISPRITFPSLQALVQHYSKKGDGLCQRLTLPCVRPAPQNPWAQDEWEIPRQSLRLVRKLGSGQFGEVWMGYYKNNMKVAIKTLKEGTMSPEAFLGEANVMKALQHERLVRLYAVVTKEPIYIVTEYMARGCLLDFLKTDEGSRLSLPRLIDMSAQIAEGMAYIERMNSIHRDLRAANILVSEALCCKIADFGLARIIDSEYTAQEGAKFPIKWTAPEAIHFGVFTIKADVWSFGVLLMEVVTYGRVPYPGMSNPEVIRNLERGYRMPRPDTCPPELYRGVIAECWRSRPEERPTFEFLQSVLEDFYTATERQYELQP

[4] = molecular target: T1, Tyrosine-protein kinase TXK (Homo sapiens) (UniProt P42681); assay: Inhibition of TXK (unknown origin) at 1 uM relative to control
T1 sequence (whole entry): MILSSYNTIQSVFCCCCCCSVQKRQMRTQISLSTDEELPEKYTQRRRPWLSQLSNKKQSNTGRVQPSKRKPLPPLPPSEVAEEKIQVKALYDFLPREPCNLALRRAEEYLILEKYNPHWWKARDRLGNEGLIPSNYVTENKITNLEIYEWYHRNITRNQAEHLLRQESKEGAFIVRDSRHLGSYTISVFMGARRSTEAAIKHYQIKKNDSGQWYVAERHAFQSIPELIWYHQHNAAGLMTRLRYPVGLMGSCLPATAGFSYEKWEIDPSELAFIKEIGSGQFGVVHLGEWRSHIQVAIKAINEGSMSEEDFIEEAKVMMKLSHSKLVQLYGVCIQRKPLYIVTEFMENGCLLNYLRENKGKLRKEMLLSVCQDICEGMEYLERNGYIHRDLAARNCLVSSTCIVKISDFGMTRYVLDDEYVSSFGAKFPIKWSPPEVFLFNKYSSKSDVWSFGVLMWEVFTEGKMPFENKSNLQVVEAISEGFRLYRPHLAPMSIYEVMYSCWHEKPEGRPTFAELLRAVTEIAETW

[5] = molecular target: Receptor tyrosine-protein kinase erbB-4 (Homo sapiens) (UniProt Q15303); assay: Inhibition of ERBB4 (unknown origin) at 1 uM relative to control
Receptor tyrosine-protein kinase erbB-4 (Homo sapiens), sequence (Q15303 whole entry): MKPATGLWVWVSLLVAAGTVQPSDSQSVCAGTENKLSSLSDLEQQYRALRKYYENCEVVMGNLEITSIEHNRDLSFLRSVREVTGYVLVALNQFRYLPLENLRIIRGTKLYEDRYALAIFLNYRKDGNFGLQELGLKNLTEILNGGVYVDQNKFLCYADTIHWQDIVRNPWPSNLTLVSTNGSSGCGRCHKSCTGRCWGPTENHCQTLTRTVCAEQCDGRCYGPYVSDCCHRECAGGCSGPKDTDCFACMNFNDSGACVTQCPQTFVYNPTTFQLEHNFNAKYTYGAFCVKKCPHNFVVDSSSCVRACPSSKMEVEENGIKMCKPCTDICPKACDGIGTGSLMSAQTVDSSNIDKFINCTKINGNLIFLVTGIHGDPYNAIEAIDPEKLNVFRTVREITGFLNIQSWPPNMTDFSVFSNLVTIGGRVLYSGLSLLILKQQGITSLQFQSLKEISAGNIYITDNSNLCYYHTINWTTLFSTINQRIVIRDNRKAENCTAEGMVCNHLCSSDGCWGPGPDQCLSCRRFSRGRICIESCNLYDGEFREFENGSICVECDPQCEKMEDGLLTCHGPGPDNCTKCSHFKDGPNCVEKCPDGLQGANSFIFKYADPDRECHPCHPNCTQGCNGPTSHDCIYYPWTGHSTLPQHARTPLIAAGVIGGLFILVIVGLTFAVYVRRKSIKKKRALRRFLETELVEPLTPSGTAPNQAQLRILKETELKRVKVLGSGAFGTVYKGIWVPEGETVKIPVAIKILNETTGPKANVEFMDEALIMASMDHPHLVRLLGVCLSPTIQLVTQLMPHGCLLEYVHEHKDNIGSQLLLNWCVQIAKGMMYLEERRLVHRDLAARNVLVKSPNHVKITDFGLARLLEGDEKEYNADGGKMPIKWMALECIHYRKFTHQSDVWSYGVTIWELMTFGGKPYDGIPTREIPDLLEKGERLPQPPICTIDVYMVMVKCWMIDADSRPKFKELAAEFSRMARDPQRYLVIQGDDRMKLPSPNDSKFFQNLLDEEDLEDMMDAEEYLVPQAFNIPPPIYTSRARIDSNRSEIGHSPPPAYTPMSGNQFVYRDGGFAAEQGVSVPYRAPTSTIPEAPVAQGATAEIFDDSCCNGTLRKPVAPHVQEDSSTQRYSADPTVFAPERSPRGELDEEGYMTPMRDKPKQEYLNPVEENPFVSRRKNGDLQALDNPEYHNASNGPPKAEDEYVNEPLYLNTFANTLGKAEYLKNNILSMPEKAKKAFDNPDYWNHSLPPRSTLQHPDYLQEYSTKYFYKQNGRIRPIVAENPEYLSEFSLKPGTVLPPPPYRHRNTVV

[6] = molecular target: Tyrosine-protein kinase Lck (Homo sapiens) (UniProt P06239); assay: Inhibition of LCK (unknown origin) at 1 uM relative to control
Tyrosine-protein kinase Lck (Homo sapiens), sequence (P06239 2-509 limits assumed): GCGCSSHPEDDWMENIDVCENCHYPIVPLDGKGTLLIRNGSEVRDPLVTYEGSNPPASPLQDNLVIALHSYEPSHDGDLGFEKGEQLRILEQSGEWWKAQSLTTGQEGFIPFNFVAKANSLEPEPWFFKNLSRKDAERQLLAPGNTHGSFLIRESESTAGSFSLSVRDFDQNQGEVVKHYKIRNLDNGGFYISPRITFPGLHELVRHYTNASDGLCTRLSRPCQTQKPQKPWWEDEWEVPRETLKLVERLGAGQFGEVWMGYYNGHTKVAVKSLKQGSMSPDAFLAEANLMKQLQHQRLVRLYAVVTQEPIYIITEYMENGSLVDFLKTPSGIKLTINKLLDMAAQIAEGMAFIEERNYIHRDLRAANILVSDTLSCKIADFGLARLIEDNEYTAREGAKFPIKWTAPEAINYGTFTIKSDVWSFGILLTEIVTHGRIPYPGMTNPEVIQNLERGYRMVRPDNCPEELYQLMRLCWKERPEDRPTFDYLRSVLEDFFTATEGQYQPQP

[7] = molecular target: Protein-tyrosine kinase 6 (Homo sapiens) (UniProt Q13882); assay: Inhibition of BRK (unknown origin) at 1 uM relative to control
Protein-tyrosine kinase 6 (Homo sapiens), sequence (Q13882 whole entry, looked up): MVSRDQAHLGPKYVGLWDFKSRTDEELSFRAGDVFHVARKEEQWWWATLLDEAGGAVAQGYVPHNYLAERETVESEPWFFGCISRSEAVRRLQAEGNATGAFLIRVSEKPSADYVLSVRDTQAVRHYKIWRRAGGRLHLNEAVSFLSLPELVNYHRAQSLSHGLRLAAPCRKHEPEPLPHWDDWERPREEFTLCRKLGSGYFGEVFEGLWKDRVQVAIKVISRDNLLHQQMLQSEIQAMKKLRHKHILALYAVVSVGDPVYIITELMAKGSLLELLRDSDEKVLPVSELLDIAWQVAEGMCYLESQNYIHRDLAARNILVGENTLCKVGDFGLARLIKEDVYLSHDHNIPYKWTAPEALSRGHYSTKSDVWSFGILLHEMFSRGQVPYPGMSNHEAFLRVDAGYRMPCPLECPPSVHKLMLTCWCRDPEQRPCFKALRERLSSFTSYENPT

[8] = molecular target: Tyrosine-protein kinase Fgr (Homo sapiens) (UniProt P09769); assay: Inhibition of FGR (unknown origin) at 1 uM relative to control
Tyrosine-protein kinase Fgr (Homo sapiens), sequence (P09769 2-529 limits assumed): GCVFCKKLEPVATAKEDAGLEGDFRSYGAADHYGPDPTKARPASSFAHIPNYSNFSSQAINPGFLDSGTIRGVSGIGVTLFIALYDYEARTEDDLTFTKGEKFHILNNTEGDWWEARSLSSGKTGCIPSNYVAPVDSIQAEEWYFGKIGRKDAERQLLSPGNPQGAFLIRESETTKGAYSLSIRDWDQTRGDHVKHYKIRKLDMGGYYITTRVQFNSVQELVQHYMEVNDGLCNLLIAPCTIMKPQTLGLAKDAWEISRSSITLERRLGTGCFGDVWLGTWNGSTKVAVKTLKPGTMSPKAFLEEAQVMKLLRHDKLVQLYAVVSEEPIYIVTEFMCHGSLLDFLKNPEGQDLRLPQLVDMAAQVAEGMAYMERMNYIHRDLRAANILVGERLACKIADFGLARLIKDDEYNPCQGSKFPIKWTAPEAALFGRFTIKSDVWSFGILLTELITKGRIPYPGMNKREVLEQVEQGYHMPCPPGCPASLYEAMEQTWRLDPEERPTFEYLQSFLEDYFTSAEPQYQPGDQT

[9] = molecular target: Tyrosine-protein kinase Tec (Homo sapiens) (UniProt P42680); assay: Inhibition of TEC (unknown origin) at 1 uM relative to control
Tyrosine-protein kinase Tec (Homo sapiens), sequence (P42680 whole entry, looked up): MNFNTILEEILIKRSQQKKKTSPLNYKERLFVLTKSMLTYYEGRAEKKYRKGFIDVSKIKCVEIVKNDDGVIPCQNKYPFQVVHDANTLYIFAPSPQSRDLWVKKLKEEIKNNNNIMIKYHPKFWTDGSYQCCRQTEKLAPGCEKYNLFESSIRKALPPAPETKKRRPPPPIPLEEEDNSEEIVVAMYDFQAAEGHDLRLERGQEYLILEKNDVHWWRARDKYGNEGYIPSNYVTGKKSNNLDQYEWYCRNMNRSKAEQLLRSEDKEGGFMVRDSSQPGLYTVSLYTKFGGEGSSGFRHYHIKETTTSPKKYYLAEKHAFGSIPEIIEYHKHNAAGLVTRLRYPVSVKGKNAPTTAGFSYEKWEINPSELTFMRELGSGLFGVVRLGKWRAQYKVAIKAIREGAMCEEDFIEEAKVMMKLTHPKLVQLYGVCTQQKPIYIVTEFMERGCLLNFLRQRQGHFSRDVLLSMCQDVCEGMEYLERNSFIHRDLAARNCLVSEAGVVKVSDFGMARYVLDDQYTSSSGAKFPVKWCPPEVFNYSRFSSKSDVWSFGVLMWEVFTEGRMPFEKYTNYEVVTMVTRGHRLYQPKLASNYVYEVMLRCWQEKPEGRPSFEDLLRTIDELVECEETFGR

Tyrosine-protein kinase BTK (Homo sapiens), sequence (Q06187 whole entry): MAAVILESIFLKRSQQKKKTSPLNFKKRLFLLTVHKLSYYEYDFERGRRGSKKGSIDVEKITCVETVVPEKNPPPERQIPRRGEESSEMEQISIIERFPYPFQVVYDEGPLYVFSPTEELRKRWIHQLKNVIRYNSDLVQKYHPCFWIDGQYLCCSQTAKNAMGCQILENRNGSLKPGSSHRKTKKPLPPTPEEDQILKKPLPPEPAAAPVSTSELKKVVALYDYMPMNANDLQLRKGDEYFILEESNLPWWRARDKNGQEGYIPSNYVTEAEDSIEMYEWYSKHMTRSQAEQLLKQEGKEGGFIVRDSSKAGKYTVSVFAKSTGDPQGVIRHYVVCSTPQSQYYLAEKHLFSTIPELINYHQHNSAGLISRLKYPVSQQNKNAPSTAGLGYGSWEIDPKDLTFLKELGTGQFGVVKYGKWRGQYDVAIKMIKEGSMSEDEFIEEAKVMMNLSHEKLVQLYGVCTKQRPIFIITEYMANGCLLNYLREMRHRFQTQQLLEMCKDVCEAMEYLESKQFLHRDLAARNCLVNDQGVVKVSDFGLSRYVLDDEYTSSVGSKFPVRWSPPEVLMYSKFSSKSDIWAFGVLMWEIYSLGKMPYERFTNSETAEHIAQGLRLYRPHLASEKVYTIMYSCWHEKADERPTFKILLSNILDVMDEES

Compound | inhibition [1] | inhibition [2] [%] | inhibition [3] [%] | inhibition [4] [%] | inhibition [5] [%] | inhibition [6] [%] | inhibition [7] [%] | inhibition [8] [%] | inhibition [9] [%]
C=CC(=O)N1CCC[C@H](n2nc(-c3ccc(Oc4ccccc4)cc3C)c3c(N)ncnc32)C1 | Active |  |  |  |  |  |  |  | 
C=CC(=O)N1CCC[C@H](n2nc(-c3c(C)cc(Oc4ccccc4)cc3C)c3c(N)ncnc32)C1 | Active | 10 | 10 | 10 | 10 | 50 | 50 | 50 | 10
